Publication PMC6327987, “Synthesis and biological evaluation of novel N^9-heterobivalent β-carbolines as angiogenesis inhibitors” (Journal of Enzyme Inhibition and Medicinal Chemistry, 2019)
Values joined by “and” are separate entries in the source; they are usually repeats but may differ in a detail not shown here. Identical values can stand only once. “Also recorded” adds a separate entry of the source. Like-named read-outs stand apart in the source and are kept apart here.

Key:
Lewis lung cancer [1] = test: In vivo antitumor activity, Lewis lung cancer-bearing mice; conditions: i.p. once a day for seven days at the dosage of Table 2 (about one-fifth of LD50; CTX 30 mg kg^−1), tumour weight day 21, mean ± SD
Procedure: (§1) Sarcoma180 and Lewis lung cancer cell lines were provided by Shanghai Institute of Pharmaceutical Industry. Mice were inoculated with Sarcoma180 and Lewis lung cancer tumour cells. After 7 days, the tumours were removed and the cells were harvested. Mice received subcutaneous injections of viable tumour cells (2 × 10^6 cells/mouse) in the armpit. […] CTX at 30 mg kg^−1 was used as the positive control and the vehicle as the negative control. The weight of the animals was recorded every three days. All of the animals were killed on the 21st day after tumour inoculation, and the tumours were excised and weighed. The inhibition rate was calculated as follows: (C−T)/C×100 where T is the average tumor weight of the treated group and C is the average tumor weight of the negative control group.

Sarcoma 180 [2] = test: In vivo antitumor activity, Sarcoma 180-bearing mice; conditions: i.p. once a day for seven days at the dosage of Table 2 (about one-fifth of LD50; CTX 30 mg kg^−1), tumour weight day 21, mean ± SD
Procedure: as §1

KM mice [3] = test: Acute toxicity in mice (i.p.); format: in vivo; conditions: for Acute toxicity Neurotoxic effect: KM mice, intraperitoneal; for Acute toxicity LD50: both, KM, mouse, in vivo, ip, 14 days
Procedure: Specific pathogen-free KM mice (6–8 weeks old) weighing 19–22 g were housed in a mouse room at 24 ± 2 °C and 60–70% humidity with 12 h light/dark cycles. The mice were provided rodent laboratory chow pellets and tap water for a week to adapt to the environment of the mouse room. The experimental protocol was approved by the Institutional Animal Ethical Committee, and all of the animals were provided by Laboratory Animal Center of Xinjiang Uygur Autonomous Region. Prior to each experiment, mice were fastened overnight and allowed free access to water. Various doses of the asymmetric dimeric β-carboline derivatives, ranging from 5.0 to 500 mg kg^−1 dissolved in 0.5% carboxymethyl cellulose sodium (CMC-Na) salt solution, were given intraperitoneally to different groups of healthy KM mice, and each group contained 10 mice (5 males and 5 females). After the administration of the compounds, the mice were observed continuously for the first 2 h for any gross behavioral changes and deaths, then intermittently for the next 24 h, and occasionally thereafter for 14 days, and for the onset of any delayed effects. All of the animals were killed on the 14th day after drug administration, and they were checked macroscopically for possible damage to the heart, liver, and kidneys. Mice that experienced immediate death following drug administration were also examined for any possible organ damage. LD50 values were calculated graphically as described.
The LD50 values of the selected N^9-heterobivalent β-carbolines in mice after intraperitoneal (i.p.) administration are shown in Table 2. […] Death occurred mostly in the high dosage group within 4–8 h after injection. All of the surviving animals returned to normal within the next day.

HepG2 = test: MTT cytotoxicity, liver carcinoma cells; format: cell-based; conditions: Homo sapiens; MTT assay, liver carcinoma HepG2, mean ± SD of at least three determinations
Procedure: (§2) Target compounds were assayed by the MTT method for cytotoxic activity, as described previously. The panel of cell lines included gastric carcinoma (BGC-823), liver carcinoma (HepG2), breast carcinoma (MCF-7), colon carcinoma (HT-29), esophageal carcinoma (Eca-109), and Lewis lung carcinoma (LLC). Growth inhibition rates were calculated with the following equitation: Inhibition ratio (%)= ODcompd−ODblank/ODDMSO−ODblank×100% . Half maximal inhibitory concentration (IC50) of each compound was calculated using software Graph-Pad Prism (version 6.0).
(§3) All the 24 novel synthesized N^9-heterobivalent β-carbolines (5a-x) were screened for their in vitro cytotoxic activities against six different cancer cell lines, namely BGC-823 (gastric carcinoma), HepG2 (liver carcinoma), MCF-7 (breast carcinoma), HT-29 (colon carcinoma), Eca-109 (esophageal carcinoma) and LLC (Lewis lung carcinoma). The IC50 values were the average of at least three independent experiments.

[4] = system: six tumor cell lines (BGC-823, HepG2, MCF-7, HT-29, Eca-109, LLC); test: MTT cytotoxicity, panel of six tumour cell lines (summary statements); format: cell-based; conditions: MTT assay, statement over all cell lines tested; read-out: IC50 against the tested six tumor cell lines
Procedure: as §2, §3

Eca-109 = test: MTT cytotoxicity, esophageal carcinoma cells; format: cell-based; conditions: Homo sapiens, ECa-109, MTT assay, esophageal carcinoma Eca-109, mean ± SD of at least three determinations
Procedure: as §2, §3

LLC = test: MTT cytotoxicity, Lewis lung carcinoma cells; format: cell-based; conditions: Lewis lung carcinoma, MTT assay, mean ± SD of at least three determinations
Procedure: as §2, §3

HT-29 = test: MTT cytotoxicity, colon carcinoma cells; format: cell-based; conditions: Homo sapiens; MTT assay, colon carcinoma HT-29, mean ± SD of at least three determinations
Procedure: as §2, §3

BGC-823 = test: MTT cytotoxicity, gastric carcinoma cells; format: cell-based; conditions: Homo sapiens; MTT assay, gastric carcinoma BGC-823, mean ± SD of at least three determinations
Procedure: as §2, §3

angiogenesis of CAM = test: Chicken chorioallantoic membrane (CAM) angiogenesis assay; format: in vivo; conditions: gelatin sponge discs 0.5, 5.0 and 50 µM/disc, 48 h, blood vessels counted
Procedure: Anti-angiogenic activity of the selected compounds 5b and 5w were investigated in vivo using a CAM assay. Five-day-old fertilized eggs were obtained from a local hatchery. We injected 5 ml of albumin, and the eggs were incubated horizontally to allow the CAM to detach from the shell to produce a sham chamber. Compounds 5b and 5w were prepared in gelatin sponge discs (5 × 5 × 5 mm^3) at the concentration of 0.5, 5.0, and 50 µM/disc, respectively. CA4P was used as the positive control drug. Discs containing the vehicle only (DMSO) were used as the negative control. A small window opening was made in the shell, and the discs were directly applied onto the CAM. The square opening was covered with sterilized surgical tape and the embryos were incubated for 48 h at 38.5 °C. The CAMs were photographed under a dissecting microscope and blood vessels in each CAM were counted. The results are presented as a mean percentage of inhibition to the control ± SD, (n = 3).
The anti-angiogenetic activity of compounds 5b and 5w were semi-quantitatively analyzed using Graph Pad Prism 5.0 (shown in Figure 2(B)).

MCF-7 = test: MTT cytotoxicity, breast carcinoma cells; format: cell-based; conditions: Homo sapiens, MCF7; MTT assay, breast carcinoma MCF-7, mean ± SD of at least three determinations
Procedure: as §2, §3

Lewis lung cancer [5] = system: Lewis lung cancer; set-up: method as in PMID 12620075; conditions: mice, dosage 40 mg kg^−1; cited from earlier work
KM mice [6] = conditions: mouse, in vivo; cited from earlier work
Sarcoma 180 [7] = system: Sarcoma 180; set-up: method as in PMID 12620075; conditions: mice, dosage 40 mg kg^−1; cited from earlier work

Question: Which results are given for `O=P1(N(CCCl)CCCl)NCCCO1` (centres unmarked) [CTX, Cyclophosphamide, reference compound]?
Answer: Tumor inhibition rate (%) Lewis lung cancer (Lewis lung cancer [1]): 80.7 ± 2.1%; Tumor inhibition rate (%) Sarcoma 180 (Sarcoma 180 [2]): 82.5 ± 3.4%

Question: Which results are given for `Cc1nccc2c3ccccc3n(CCCCn3c4ccccc4c4ccnc(-c5cccnc5)c43)c12` [Compound 5b, 1–(3-pyridyl)-9–(4-(1-methyl-β-carboline-9-yl)butyl)-β-carboline]?
Answer: Acute toxicity Neurotoxic effect (KM mice [3]): –^b; Acute toxicity LD50 (KM mice [3]): 150 mg/kg; IC50 (HepG2): 15.9 ± 1.4 µM; IC50 [4]: < 20 µM; IC50 (Eca-109): 10.5 ± 1.3 µM; IC50 (LLC): 12.4 ± 2.1 µM; IC50 (HT-29): 12.6 ± 1.2 µM; IC50 (BGC-823): 12.1 ± 2.3 µM; Anti-angiogenic effect in CAM assay (in words) (angiogenesis of CAM): could inhibit the angiogenesis of CAM; also recorded: inhibited angiogenesis; IC50 (MCF-7): 8.4 ± 1.7 µM

Question: Which “Acute toxicity LD50” value (KM mice [3]) does the source give for `Cc1nccc2c3ccccc3n(CCCCCn3c4ccccc4c4ccnc(-c5cccnc5)c43)c12` [Compound 5c, 1–(3-pyridyl)-9–(5-(1-methyl-β-carboline-9-yl)pentyl)-β-carboline] here?
Answer: The value was 175 mg/kg.

Question: And the IC50 (HepG2)?
Answer: The IC50 was 10.5 ± 2.1 µM.

Question: What about the IC50 (Eca-109) of the same molecule?
Answer: The IC50 was 25.3 ± 3.2 µM.

Question: What about the IC50 (LLC) of the same molecule?
Answer: The IC50 was 5.7 ± 1.2 µM.

Question: What about the “Tumor inhibition rate (%) Sarcoma 180” value (Sarcoma 180 [2]) of the same molecule?
Answer: The value was 33.6% and 33.6 ± 9.2%.

Question: What about the IC50 (HT-29) of the same molecule?
Answer: Its IC50 is 13.3 ± 2.4 µM.

Question: And the IC50 (BGC-823)?
Answer: The IC50 was 22.6 ± 1.9 µM.

Question: And the IC50 (MCF-7)?
Answer: Its IC50 is 15.3 ± 2.6 µM.

Question: Which IC50 (HepG2) does the source give for `Cc1nccc2c3ccccc3n(CCCCn3c4ccccc4c4ccnc(-c5ccccc5Cl)c43)c12` [Compound 5i, 1–(2-chlorophenyl)-9–(4-(1-methyl-β-carboline-9-yl)butyl)-β-carboline] here?
Answer: The IC50 was 23.9 ± 3.7 µM.

Question: And the IC50 [4]?
Answer: Its IC50 is 18.8 to 97.6 µM.

Question: And the IC50 (Eca-109)?
Answer: Its IC50 is 23.4 ± 4.1 µM.

Question: What about the IC50 (LLC) of the same molecule?
Answer: The IC50 was 44.7 ± 3.6 µM.

Question: What about the IC50 (HT-29) of the same molecule?
Answer: The IC50 was 28.3 ± 1.6 µM.

Question: And the IC50 (BGC-823)?
Answer: The IC50 was 37.9 ± 4.2 µM.

Question: And the melting point?
Answer: The melting point was 232 to 232.8 °C.

Question: What about the IC50 (MCF-7) of the same molecule?
Answer: The IC50 was 95.5 ± 14.8 µM.

Question: With `COc1ccc2c3ccnc(C)c3n(CCCCCn3c4ccccc4c4ccnc(C)c43)c2c1` [Compound 5t, 7-methoxy-1-methyl-9–(5-(1-methyl-β-carboline-9-yl)pentyl)-β-carboline] as the molecule, how does the “Acute toxicity Neurotoxic effect” value (KM mice [3]) read?
Answer: The value was “+”.

Question: And the “Acute toxicity LD50” value (KM mice [3])?
Answer: The value was 35 mg/kg.

Question: And the IC50 (HepG2)?
Answer: Its IC50 is 31.6 ± 2.2 µM.

Question: And the IC50 (Eca-109)?
Answer: Its IC50 is 51.9 ± 7.4 µM.

Question: What about the IC50 (LLC) of the same molecule?
Answer: Its IC50 is 3.1 ± 0.4 µM.

Question: And the “Tumor inhibition rate (%) Sarcoma 180” value (Sarcoma 180 [2])?
Answer: Its value is 37.2% and 37.2 ± 4.4%.

Question: And the IC50 (HT-29)?
Answer: Its IC50 is 4.5 ± 0.6 µM.

Question: And the IC50 (BGC-823)?
Answer: Its IC50 is 42.7 ± 2.9 µM.

Question: What about the IC50 (MCF-7) of the same molecule?
Answer: Its IC50 is 17.6 ± 3.4 µM.

Question: Which “Acute toxicity Neurotoxic effect” value (KM mice [3]) does the source give for `COc1ccc2c3ccnc(C)c3n(CCCCn3c4ccccc4c4ccnc(-c5cccs5)c43)c2c1` [Compound 5w, 7-methoxy-1-methyl-9–(4-(1–(2-thienyl)-β-carboline-9-yl)butyl)-β-carboline] here?
Answer: Its value is “+”.

Question: What about the “Acute toxicity LD50” value (KM mice [3]) of the same molecule?
Answer: Its value is 50 mg/kg.

Question: And the IC50 (HepG2)?
Answer: Its IC50 is 15.4 ± 2.7 µM.

Question: And the IC50 [4]?
Answer: Its IC50 is less than 20 µM.

Question: What about the IC50 (Eca-109) of the same molecule?
Answer: The IC50 was 15.4 ± 1.9 µM.

Question: And the IC50 (LLC)?
Answer: Its IC50 is 13.1 ± 2.4 µM.

Question: What about the IC50 (HT-29) of the same molecule?
Answer: The IC50 was 13.1 ± 3.5 µM.

Question: What about the IC50 (BGC-823) of the same molecule?
Answer: Its IC50 is 16.5 ± 1.9 µM.

Question: And the “Anti-angiogenic effect in CAM assay (in words)” value (angiogenesis of CAM)?
Answer: Its value is “inhibited angiogenesis”.

Question: What about the IC50 (MCF-7) of the same molecule?
Answer: The IC50 was 14.1 ± 1.4 µM.

Question: With `Cc1nccc2c3ccccc3n(CCCCn3c4ccccc4c4ccnc(C)c43)c12` [Compound B-9-3, 1-Methyl-9-[4–(1-methyl-β-carboline-9-yl)butyl]-β-carboline, reference compound] as the molecule, how does the “Tumor inhibition rate (%) Lewis lung cancer” value (Lewis lung cancer [5]) read?
Answer: The value was 40.4%.

Question: What about the IC50 (HepG2) of the same molecule?
Answer: Its IC50 is greater than 100 µM.

Question: What about the IC50 (Eca-109) of the same molecule?
Answer: Its IC50 is 14.5 ± 2.2 µM.

Question: And the IC50 (LLC)?
Answer: The IC50 was 6.1 ± 0.9 µM.

Question: And the IC50 (HT-29)?
Answer: The IC50 was 40.6 ± 5.8 µM.

Question: What about the IC50 (BGC-823) of the same molecule?
Answer: Its IC50 is 22.3 ± 2.9 µM.

Question: What about the “Acute toxicity LD50” value (KM mice [6]) of the same molecule?
Answer: The value was 200 mg/kg.

Question: And the “Tumor inhibition rate (%) Sarcoma 180” value (Sarcoma 180 [7])?
Answer: The value was 56.2%.

Question: And the IC50 (MCF-7)?
Answer: Its IC50 is 13.2 ± 1.5 µM.
